Data on 16 compounds can be found in patent US20150329498A1, “IRAK INHIBITORS AND USES THEREOF” (Nimbus Iris, Inc., priority 2014, published 2015).

Where only a bound is given, the exact number is not on record here.

Experiment [1] has as its system TNFα production in THP-1 cells. The experiment in a line: LPS induced TNFα production assay in THP-1 cells. In kind it is cell-based. As to conditions: Homo sapiens, 300 ng/mL LPS, measured at 5 hours. As to the method: (§1) Provided compounds were also assayed in an LPS (Lipopolysaccharide) or R848 (TLR-7 agonist) induced cytokine (TNFα and IL8) production assay in THP-1 cells, human white blood cells (hWBC), and human whole blood. The exemplary protocol for this assay in THP-1 cells was as follows below.
(§2) THP-1 cells from ATCC (TIB-202) were cultured in RPMI Medium 1640 (Invitrogen, Cat No. A10491-01), 10% fetal bovine serum (Invitrogen, Cat No. 10099141, Lot No. 8172882) containing 100 U/mL Penicillin, 100 μg/mL streptomycin (Invitrogen, Cat No. 15140-122), and 50 uM 2-Mercaptoethanol (Invitrogen, Cat No. 21985023). LPS-EK ultra pure (Invivogen, Cat No. tlrl-peklps) was used to induce IL8 and TNFα production, that was detected in the cell culture supernatant by IL8 HTRF kit (Cisbio, Cat No. 62IL8PEB) and TNFα HTRF kit (Cisbio, Cat No. 62TNFPEB), as per manufacturer instructions. Cells were cultured in 96 well assay plates at 100,000 cells per well, and compounds diluted in final 0.3% DMSO were pre-incubated with cells for 1 hour prior to stimulation with 300 ng/mL LPS. Cytokine production in cell supernatant was measured at 5 hours for TNFα production, and at 16 hours for IL8 production and assessment of cell viability.
(§3) The compound numbers correspond to the compound numbers in Table 1. Compounds having an activity designated as “A” provided an IC50≦0.5 μM; compounds having an activity designated as “B” provided an IC50 of 0.5-5.0 μM; compounds having an activity designated as “C” provided an IC50>5.0 μM. “NA” stands for “not assayed.”

The test system of experiment [2] is IL8 production in THP-1 cells. The experiment in a line: LPS induced IL8 production assay in THP-1 cells. In kind it is cell-based. As to conditions: Homo sapiens, 300 ng/mL LPS, measured at 16 hours. Here is the method:
as §1, §2, §3

A further experiment has as its target T1, IRAK4 (Homo sapiens, UniProt Q9NWZ3).
T1 construct: purchased CARNA Bioscience 09-145
T1 sequence (Q9NWZ3 1-460): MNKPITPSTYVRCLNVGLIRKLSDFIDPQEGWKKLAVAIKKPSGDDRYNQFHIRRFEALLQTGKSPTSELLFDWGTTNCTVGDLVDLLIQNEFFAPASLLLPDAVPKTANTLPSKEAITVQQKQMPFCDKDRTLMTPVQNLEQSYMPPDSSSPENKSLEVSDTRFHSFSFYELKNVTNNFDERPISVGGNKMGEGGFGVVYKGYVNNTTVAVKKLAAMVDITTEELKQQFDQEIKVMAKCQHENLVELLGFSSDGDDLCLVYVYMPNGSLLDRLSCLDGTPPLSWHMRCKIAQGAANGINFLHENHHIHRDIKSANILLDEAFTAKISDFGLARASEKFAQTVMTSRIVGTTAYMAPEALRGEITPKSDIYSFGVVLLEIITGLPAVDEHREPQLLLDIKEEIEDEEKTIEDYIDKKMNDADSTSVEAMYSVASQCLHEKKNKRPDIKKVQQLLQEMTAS
In words: IRAK-4 activity inhibition assay (Caliper). In kind it is biochemical. As to conditions: 3.5 nM IRAK4, 1.5 μM Peptide 8, 37 μM ATP. Here is the method: A 1x kinase base buffer was prepared from 50 mM HEPES, pH 7.5 and 0.0015% Brij-35. A stop buffer was prepared from 100 mM HEPES, pH 7.5, 0.015% Brij-35, 0.2% Coating Reagent #3, and 50 mM EDTA.
Test compound was diluted to 50× of the final desired highest inhibitor concentration in reaction by 100% DMSO. 100 ul of this compound dilution was transferred to a well in a 96-well plate. For example, if desired highest inhibitor concentration in IC50 determination is 100 uM, then prepare 5000 uM of compound DMSO solution in this step.
Test compound was serially diluted by transferring 30 μl to 60 μl of 100% DMSO in the next well and so forth for a total of 10 concentrations. 100 μl of 100% DMSO was added to two empty wells for no compound control and no enzyme control in the same 96-well plate.
A new 96-well plate was marked as intermediate plate. 5 μl of compound serial dilution was transferred from source plate to the corresponding wells of the intermediate plate. 45 μl of 1x kinase base buffer (KB buffer) was added to each well of the intermediate plate. The intermediate plate was placed for 10 min on a shaker.
5 μl of each well was transferred from the 96-well intermediate plate to a 384-well plate in duplicates. For example, A1 of the 96-well plate is transferred to A1 and A2 of the 384-well plate. A2 of the 96-well plate is transferred to A3 and A4 of the 384-well plate, and so on.
IRAK4 and DTT in 1x kinase base buffer was added. The 2.5x enzyme mix contained 8.8 nM IRAK4 and 5 mM DTT.
Peptide 8, ATP, MgCl2 and MnCl2 were added in the 1x kinase base buffer. The 2.5x peptide mix contained 3.75 μM peptide 8, 92.5 μM ATP, 12.5 mM MgCl2 and 2.5 mM MnCl2.
Assay plate already contained 5 μl of compound in 10% DMSO. Added 10 μl of 2.5x enzyme solution to each well of the 384-well assay plate, except no enzyme control wells. The final concentration of IRAK4 in reaction was 3.5 nM. Added 10 μl of 1x kinase base buffer to no enzyme control wells in the assay plate. Incubated at room temperature for 10 min.
Added 10 μl of 2.5x peptide solution to each well of the 384-well assay plate. The final concentration of Peptide 8 and ATP was 1.5 μM and 37 μM, respectively. Incubated at for 40 minutes. Added 25 μl of stop buffer to stop reaction. Collected data on Caliper.
Copied conversion % data from Caliper program. Converted conversion % values to percent inhibition values. Percent inhibition=(max−conversion %)/(max−min)*100, where “max” means the conversion % of DMSO control and “min” means the conversion % of no enzyme control.
The compound numbers correspond to the compound numbers in Table 1. Compounds having an activity designated as “A” provided an IC50≦5 μM; compounds having an activity designated as “B” provided an IC50 of 5-20 μM; compounds having an activity designated as “C” provided an IC50 of 20-50 μM; and compounds having an activity designated as “D” provided an IC50≧50 μM. “NA” stands for “not assayed.”

Turning to `Brc1ccc2ncnc(N[C@H]3CC[C@H](N4CCOCC4)CC3)c2c1` [Compound I-2, 6-bromo-N-((1r,4r)-4-morpholinocyclohexyl)quinazolin-4-amine], the figures for the IC50 (in experiment [1]; in experiment [2]; against IRAK4) were at most 500 nM, at most 500 nM and at most 5000 nM, respectively.
In the case of `NC(=O)c1ccc2ncnc(N[C@H]3CC[C@H](N4CCOCC4)CC3)c2c1` [Compound I-5, 4-(((1r,4r)-4-morpholinocyclohexyl)amino)quinazoline-6-carboxamide], the IC50 (usually the point on the concentration scale where inhibition reaches its midpoint) in experiment [1] was 500 to 5000 nM; in experiment [2] it was above 5000 nM; at IRAK4 it was at most 5000 nM.
With `Cn1cc(Nc2nc(N[C@H]3CC[C@H](N4CCOCC4)CC3)c3cc(Br)ccc3n2)cn1` [Compound I-10, 6-bromo-N2-(1-methyl-1H-pyrazol-4-yl)-N4-((1r,4r)-4-morpholinocyclohexyl)quinazoline-2,4-diamine], the IC50 in experiment [1] is at most 500 nM; in experiment [2] it was at most 500 nM; against IRAK4 it was at most 5000 nM.
On to `Cn1cc(Nc2nc(N[C@H]3CC[C@H](N4CCOCC4)CC3)c3cc(C#N)ccc3n2)cn1` [Compound I-11, 2-((1-methyl-1H-pyrazol-4-yl)amino)-4-(((1r,4r)-4-morpholino-cyclohexyl)amino)quinazoline-6-carbonitrile], for which the results for the IC50 (in experiment [1]; in experiment [2]; on IRAK4) were at most 500 nM, at most 500 nM and at most 5000 nM, respectively.
As for `N#Cc1ccc2ncnc(N[C@H]3CC[C@H](N4CCC5(CC4)COC5)CC3)c2c1` [Compound I-14, 4-(((1r,4r)-4-(2-oxa-7-azaspiro[3.5]nonan-7-yl)cyclohexyl)amino)-quinazoline-6-carbonitrile], the results for the concentration for half-maximal inhibition (IC50) (in experiment [1]; in experiment [2]; on IRAK4) were at most 500 nM, at most 500 nM and at most 5000 nM, respectively.
Turning to `CCc1ccc2ncnc(N[C@H]3CC[C@H](N4CCOCC4)CC3)c2c1` [Compound I-15, 6-ethyl-N-((1r,4r)-4-morpholinocyclohexyl)quinazolin-4-amine], the IC50 in experiment [1] was at most 500 nM; in experiment [2], at most 500 nM; against IRAK4 it was at most 5000 nM.
Consider `N#Cc1ccc2nc(Nc3cnn(C4CCOCC4)c3)nc(N[C@H]3CC[C@H](N4CCOCC4)CC3)c2c1` [Compound I-16, 4-(((1r,4r)-4-morpholinocyclohexyl)amino)-2-((1-(tetrahydro-2H-pyran-4-yl)-1H-pyrazol-4-yl)amino)quinazoline-6-carbonitrile], for which the IC50 is at most 500 nM in experiment [1], at most 500 nM in experiment [2] and at most 5000 nM against IRAK4.
For the compound `C=Cc1ccc2ncnc(N[C@H]3CC[C@H](N4CCOCC4)CC3)c2c1` [Compound I-20, N-((1r,4r)-4-morpholinocyclohexyl)-6-vinylquinazolin-4-amine], the IC50 in experiment [1] was at most 500 nM; on IRAK4 it was at most 5000 nM.
On to `N#Cc1ccc2nc(Nc3cnn(CCO)c3)nc(N[C@H]3CC[C@H](N4CCOCC4)CC3)c2c1` [Compound I-22, 2-((1-(2-hydroxyethyl)-1H-pyrazol-4-yl)amino)-4-(((1r,4r)-4-morpholinocyclohexyl)amino)quinazoline-6-carbonitrile], for which the half-maximal inhibitory concentration (IC50) is 500 to 5000 nM in experiment [1], at most 500 nM in experiment [2] and at most 5000 nM against IRAK4.
Regarding `N#Cc1ccc2nc(Nc3cnn(CCOCCO)c3)nc(N[C@H]3CC[C@H](N4CCOCC4)CC3)c2c1` [Compound I-24, 2-((1-(2-(2-hydroxyethoxy)ethyl)-1H-pyrazol-4-yl)amino)-4-(((1r,4r)-4-morpholinocyclohexyl)amino)quinazoline-6-carbonitrile], the IC50 in experiment [1] was 500 to 5000 nM; in experiment [2], at most 500 nM; against IRAK4, at most 5000 nM.
For `CS(=O)(=O)CCCn1cc(Nc2nc(N[C@H]3CC[C@H](N4CCOCC4)CC3)c3cc(C#N)ccc3n2)cn1` [Compound I-25, 2-((1-(3-(methylsulfonyl)propyl)-1H-pyrazol-4-yl)amino)-4-(((1r,4r)-4-morpholinocyclohexyl)amino)quinazoline-6-carbonitrile], the values for the IC50 (in experiment [1]; in experiment [2]; on IRAK4) were 500 to 5000 nM, 500 to 5000 nM and at most 5000 nM, respectively.
With `Clc1ccc2ncnc(N[C@H]3CC[C@H](N4CCOCC4)CC3)c2c1` [Compound I-26, 6-chloro-N-((1r,4r)-4-morpholinocyclohexyl)quinazolin-4-amine], the IC50 in experiment [1] is at most 500 nM; in experiment [2] it was at most 500 nM; against IRAK4, at most 5000 nM.
Turning to `Clc1ccc2ncnc(N[C@H]3CC[C@H](N4CCC5(CC4)COC5)CC3)c2c1` [Compound I-27, N-((1r,4r)-4-(2-oxa-7-azaspiro[3.5]nonan-7-yl)cyclohexyl)-6-chloroquinazolin-4-amine], the values for the IC50 (in experiment [1]; in experiment [2]; at IRAK4) were at most 500 nM, at most 500 nM and at most 5000 nM, respectively.
With `N#Cc1ccc2nc(Nc3cnn(C4CCC(O)CC4)c3)nc(N[C@H]3CC[C@H](N4CCOCC4)CC3)c2c1` (some centres unmarked) [Compound I-28, 2-((1-(4-hydroxycyclohexyl)-1H-pyrazol-4-yl)amino)-4-(((1r,4r)-4-morpholinocyclohexyl)amino)quinazoline-6-carbonitrile], the IC50 in experiment [1] is at most 500 nM; in experiment [2] it was at most 500 nM; against IRAK4, at most 5000 nM.
Regarding `c1nc(N[C@H]2CC[C@H](N3CCOCC3)CC2)c2c3c(ccc2n1)CCC3` [Compound I-29, N-((1r,4r)-4-morpholinocyclohexyl)-8,9-dihydro-7H-cyclo-penta[f]quinazolin-1-amine], the IC50 in experiment [1] was 500 to 5000 nM; in experiment [2], at most 500 nM; against IRAK4, at most 5000 nM.
For `OCC#Cc1ccc2ncnc(N[C@H]3CC[C@H](N4CCOCC4)CC3)c2c1` [Compound I-30, 3-(4-(((1r,4r)-4-morpholinocyclohexyl)amino)quinazolin-6-yl)prop-2-yn-1-ol], in that order: at most 500 nM, at most 500 nM and at most 5000 nM.
